Reference: US20090156504A1, “METHODS OF TREATING BLOOD CELL DEPLETION” (ImmuneRegen Biosciences, Inc., priority 2007, published 2009)

What was measured:
[1] = system: Colony Forming Unit-Megakaryocyte (CFU-Mk) cultures; assay: Colony forming unit assay, CFU-Mk (Example 6); type: cell-based, human; conditions: for effect of receptor antagonist on substance P-enhanced platelet colony formation: in the presence of substance P
From the text: (§1) As stem cells differentiate in response to growth factors, they form a colony of cells with distinct morphologies that can be visualized using a microscope. This study examined the formation of three different progenitor cell populations, erythrocytes, platelets and granulocytes/macrophages.
(§2) Bone marrow aspirates were obtained from three healthy donors between 18 and 35 years of age following appropriate guidelines and protocols. Bone marrow mononuclear cells were isolated using a Ficoll-Hypaque density gradient, separating red blood cells from the others. Cells from each donor were processed independently and used for setting up individual experiments to assess the effects, if any, of donor variability.
(§3) Cells (1×10^5) were plated in duplicate onto 35 mm tissue culture plates for each condition tested and set up as described in Rameshwar et al. 1993, Blood. 81:2, 391-398. Erythroid and granulocyte/macrophage cultures were plated using methylcellulose and megakaryocyte cultures (platelet precursors) used a collagen-based support (StemCell Technologies, Vancouver, Canada, catalogue #04973). […] CP 99,994 (Pfizer) was used as a neurokinin-1 receptor antagonist and SR 48968 (Sanofi) was used as a neurokinin-2 receptor antagonist.
Cultures were set up with limited cytokines and growth factors which would promote differentiation of one progenitor per plate.
Each compound was dissolved in endotoxin-free water to a final concentration of 0.1 mM. After reconstitution, the solutions were aliquoted into siliconized microcentrifuge tubes and exposed to nitrogen gas, eliminating oxygen in the head space of the enclosure. All aliquots were stored at −20° C. until use and used within one month of reconstitution. See, Rameshwar, et al. 1997, J. Immunol.
Cultures were incubated at 37° C. with 5% CO2 for approximately 14 days, after which colonies were manually enumerated using a microscope. […]

[2] = system: Colony Forming Unit—Erythroid (CFU-E) cultures; assay: Colony forming unit assay, CFU-E (Example 6); type: cell-based; conditions: human bone marrow cells, about 14 days, FIG. 2
From the text: as §1, §2
as §3, with “antagonist. […]” for “antagonist.”

[3] = system: Blast Forming Unit—Erythroid (BFU-E) cultures; assay: Colony forming unit assay, BFU-E (Example 6); type: cell-based; conditions: human bone marrow cells, about 14 days, FIG. 1; control = zero level
From the text: as §1, §2
as §3, with “antagonist. […]” for “antagonist.”

[4] = system: human bone marrow-derived hematopoietic cell populations; assay: CFC differentiation and ATP proliferation assays, overall statements on the seven cell populations (Examples 4 and 5); type: cell-based
Procedure: The compound was dissolved in 1 ml of Iscove's Modified Dulbecco's Medium (IMDM) and a serial dose response prepared in single log doses so that the final dose in culture ranged from 1 nM to 1×10^−16 M. All working dilutions were performed in IMDM.
Starting with human bone marrow aspirate, the mononuclear cell (MNC) fraction was separated from the whole bone marrow using Ficoll-Paque density gradient centrifugation. […] The cell concentration was adjusted so that the final cell concentration in culture was 10,000 cells/well.
Human bone marrow MNC was dissolved in IMDM and cultured at a concentration of 10,000 cell/well in a CAMEO™-96 Master Mix (HemoGenix, Inc., Colorado Springs, Colo.). Master Mix is a HemoGenix proprietary cell culture media comprised of a serum mix (4 parts), a methyl cellulose mix (4 parts) and a growth factor mix (1 part) with the bone marrow target cells (1 part). See, Rich and Hall 2005, Toxicol. Sci. 87(2): 427-441.
Different combinations and concentrations of growth factors are used to induce differentiation of cells into specific cell types. […]
Prior to processing all 96-well plates, the total colony counts/well were manually enumerated by microscopy. The mean, standard deviation and percent coefficient of variation was calculated for all groups, transposed and plotted. The intracellular ATP (iATP) concentration was measured after manual enumeration. The output of the luminometer is non-standardized Relative Luminescence Units (RLU). […] This allowed the RLU values to be automatically calculated into standardized ATP (μM) units. For both the RLU and ATP values derived from each well, the luminometer software calculated the mean, standard deviation and percent coefficient of variation. […]

Compound: CC(=O)NC1(c2ccccc2)CCN(CC[C@H](CN(C)C(=O)c2ccccc2)c2ccc(Cl)c(Cl)c2)CC1 [SR48968]
- effect of receptor antagonist on substance P-enhanced platelet colony formation [1]: showed no effect on substance P activity

Compound: COc1ccccc1CN[C@H]1CCCN[C@H]1c1ccccc1 [CP-99,994]
- effect of receptor antagonist on substance P-enhanced platelet colony formation [1]: blocks the stimulatory activity of substance P

Compound: RPKPQQFFGLM-NH2 [substance P]
- CFU-E colony formation enhancement from control values [2]: about 70%
- effective concentration for platelet precursors ([1]; approximately 2-fold stimulation): 10^−8 M
- BFU-E colony increase from control values [3]: ~60%

Compound: CC(C)C[C@H](NC(=O)CN(C)C(=O)[C@H](Cc1ccccc1)NC(=O)[C@H](Cc1ccccc1)NC(=O)[C@H](CCC(N)=O)NC(=O)[C@H](CCC(N)=O)NC(=O)[C@@H]1CCCN1C(=O)[C@H](CCCCN)NC(=O)[C@@H]1CCCN1C(=O)[C@@H](N)CCCNC(=N)N)C(=O)N[C@@H](CCS(C)(=O)=O)C(N)=O [Homspera®]
- toxicity to T-CFC and B-CFC ([4]; Example 4, levels tested (10^−16 M to 1 nM)): do not demonstrate toxicity at the levels tested
- cytotoxicity ([4]; Example 4, most of populations, 14 days, 10^−16 M to 1 nM): apparent absence of distinct cytotoxicity
- toxicity in CFC assay ([4]; Example 5, three donors, seven cell populations, highest doses (1 nM)): no apparent toxicity at the highest doses
